The source of these data is PMC10812672, “Short Antimicrobial Peptide Derived from the Venom Gland Transcriptome of Pamphobeteus verdolaga Increases Gentamicin Susceptibility of Multidrug-Resistant Klebsiella pneumoniae” (Antibiotics, 2023).

What is called MIC is the lowest concentration found to suppress growth. Read a low MIC as inhibition by little substance. By IC50 is commonly meant the point on the concentration scale where inhibition reaches its midpoint. The term MBC denotes the lowest tested concentration that kills the bacteria rather than only halting them. A lower MBC goes with greater bactericidal potency. A word on the inhibition: it is the change of the read-out against control, counted positive when it falls. A lower inhibition goes with a weak effect.

Where two headings read alike, the source gives them in different places. Ends that are not written are not given here.

In assay [1] the test system is E. coli ATCC® 25922. The class given is cell-based, Escherichia coli. As to conditions: CLSI broth microdilution, Mueller-Hinton broth, peptide 30 µM, ~6 × 10^6 CFU/mL, 24 h 37 °C, OD600; triplicate, three independent assays; NA = no activity. Here is the method: (§1) Activity screening was conducted using the broth microdilution method at a fixed peptide concentration of 30 µM against E. coli ATCC® 8739 and 25922, as well as S. aureus ATCC® 6538 and 29213. The bacterial density used for screening was approximately 6 × 10^6 CFU/mL [30]. Peptide activity measurements were conducted in terms of the growth inhibition percentage. No dose-response curves were generated during the screening phase as a resource optimization strategy in the initial activity evaluation. […] For S. aureus ATCC® 6538 and S. aureus ATCC® 29213, growth inhibition ranged from 0% to 140% and 0% to 98%, respectively (Table 1).
(§2) The evaluation of the antimicrobial activity of the peptides was conducted using the CLSI’s broth microdilution method for bacterial susceptibility testing. For the screening phase, peptides were evaluated at a single 30 μM concentration, in triplicate and in three independent assays, against the E. coli ATCC® 8739, E. coli ATCC® 25922, S. aureus ATCC® 6538, or S. aureus ATCC® 29213 reference USP and CLSI strains. For the determination of MIC, MBC, or IC50, peptides or antibiotics were evaluated in concentrations between 1.56–200 µM. These evaluations were conducted in triplicate and in three independent assays, against the E. coli ATCC® 25922, S. aureus ATCC® 29213, E. faecalis ATCC® 49532, P. aeruginosa ATCC® 9027, and K. pneumoniae ATCC® BAA-1705, or the clinically isolated MDR strain. In detail, 1 mL of a glycerol stock solution of the ATCC® or clinically isolated bacterial strain was added to 9 mL of Mueller-Hinton Broth and incubated for 18 h, 180 rpm and 37 °C (Incubator 1000, Heidolph Instruments, Schwabach, Germany). After the incubation, 1 mL of the previous solution was transferred to a new recipient containing 9 mL of fresh Mueller-Hinton broth and incubated for 4 h, 180 rpm and 37 °C (Incubator 1000, Heidolph Instruments, Schwabach, Germany). During the second incubation, the peptides or the antibiotics were dissolved in PBS pH 7.20 in concentrations between 19.53–2500 µM (MC5 Micro Balance, Sartorius AG, Göttingen, Germany). An amount of 10 µL of either peptide or antibiotic was dispensed in triplicate in 96-well flat bottom culture plates, along with 10 µL of PBS (Negative activity control), BTM-P1 (Positive activity control), or 10 µL of Mueller-Hinton broth (Blank); then, 110 µL of Mueller-Hinton broth was poured in all wells. Following this, the bacteria were suspended in Mueller-Hinton broth up to a concentration of approximately 1.50 × 10^8 CFU/mL, as measured by optical density at 600 nm between 0.06 to 0.11 (0.5 McFarland standard), in a Multiskan SkyHigh spectrophotometer (ThermoFisher Scientific, Waltham, MA, USA). Amounts of 5 µL of the 1.50 × 10^8 CFU/mL suspension were added to each well (except for the blank) for a final well concentration of approximately 6 × 10^6 CFU/mL. The plate was incubated for 24 h at 37 °C (BE 500, Memmert GmbH, Büchenbach, Germany) and optical density was measured at 600 nm in a Multiskan SkyHigh spectrophotometer (ThermoFisher Scientific, Waltham, MI, USA). Following the measurement of optical density, plates were visually inspected to determine the MIC. Subsequently, 100 µL of the concentration associated to the MIC and 100 µL of the next higher concentration were added to Petri dishes containing Mueller-Hinton Agar. The dishes were then incubated for 24 h at 37 °C (BE 500, Memmert GmbH, Büchenbach, Germany). After incubation, the Petri dishes were visually inspected, and the MBC was determined in the absence of growth. IC50 values were interpolated from regressions with correlation values above 0.70. Growth inhibition percentages were calculated as follows: Growth inhibition %=1−AbsPEPTIDE or ANTIBIOTIC−Median AbsBLANK/Median AbsPBS−Median AbsBLANK×100

In the next assay the test system is E. coli ATCC® 8739. It is filed as cell-based, Escherichia coli. As to conditions: CLSI broth microdilution, Mueller-Hinton broth, peptide 30 µM, ~6 × 10^6 CFU/mL, 24 h 37 °C, OD600; triplicate, three independent assays; NA = no activity. As to the method:
as §1, §2

Assay [2] concerns E. coli ATCC® 25922. It is filed as cell-based, Escherichia coli. The following applies: for MIC: 1.56–200 µM, visual inspection, triplicate, three independent assays; for MIC / MBC: 24 h 37 °C; for MBC: plating on Mueller-Hinton agar, absence of growth. As to the method:
(§3) The nine AMPs identified in the initial screening were evaluated at concentrations between 1.56–200 µM, against E. coli ATCC® 25922, S. aureus ATCC® 29213, E. faecalis ATCC® 49532, P. aeruginosa ATCC® 9027, and K. pneumoniae ATCC® BAA-1705 (Supplementary Figures S2–S6). […] Only PvAMP66 and PvAMP172 reached the MBC for S. aureus at 50 µM and 100 µM, respectively (Table 2).
as §2

The subject of assay [3] is S. aureus ATCC® 29213. It is filed as cell-based, Staphylococcus aureus. As to conditions: for IC50: growth inhibition OD600, 95% confidence interval in parentheses; for MIC: 1.56–200 µM, 24 h 37 °C, visual inspection, triplicate, three independent assays. As to the method:
as §3, §2

The subject of another assay is P. aeruginosa ATCC® 9027. It is filed as cell-based, Pseudomonas aeruginosa. The following applies: for MIC: 1.56–200 µM, 24 h 37 °C, visual inspection, triplicate, three independent assays; for IC50: growth inhibition OD600, 95% confidence interval in parentheses; for MBC: plating on Mueller-Hinton agar, absence of growth. Here is the method:
as §3, §2

Assay [4] deals with S. aureus ATCC® 29213. It is filed as cell-based, Staphylococcus aureus. As to conditions: CLSI broth microdilution, Mueller-Hinton broth, peptide 30 µM, ~6 × 10^6 CFU/mL, 24 h 37 °C, OD600; triplicate, three independent assays; NA = no activity. Here is the method:
as §1, §2
On the technique in general: Broth dilution looks for growth in wells or tubes with falling amounts of substance.

Another assay deals with S. aureus ATCC® 6538. The class given is cell-based, Staphylococcus aureus. The following applies: CLSI broth microdilution, Mueller-Hinton broth, peptide 30 µM, ~6 × 10^6 CFU/mL, 24 h 37 °C, OD600; triplicate, three independent assays; NA = no activity. As to the method: as §1, §2
Where [5] appears, read: growth inhibition OD600, interpolated from regression, 95% confidence interval in parentheses, read-out: IC50.

“QCRKLCFRNRCLTYCRGR-NH2 (disulfide (positions not given here)) [PvAMP177, predicted P. verdolaga AMP]”: the “E. coli ATCC® 25922 (Inhibition %)” value with E. coli ATCC® 25922 [1] is listed as 56.76 ± 3.64 %. Besides, the “E. coli ATCC® 8739 (Inhibition %)” value in the assay on E. coli ATCC® 8739 stood at 93.07 ± 7.11 %. In addition, the values for the minimum inhibitory concentration (MIC) against E. coli ATCC® 25922 [2] and in the assay on P. aeruginosa ATCC® 9027 were 25 µM and 50 µM, respectively. In addition, the concentration for half-maximal inhibition (IC50) with E. coli ATCC® 25922 [2] (setting [5]) worked out at 25.3 µM; with E. coli ATCC® 25922 [2] (same result in µg/mL), 6.64 µg/mL; in the assay on S. aureus ATCC® 29213 [3] it was 138 µM; in the assay on P. aeruginosa ATCC® 9027 it was 25.9 µM. Moreover, the MBC with E. coli ATCC® 25922 [2] and against P. aeruginosa ATCC® 9027 was 50 µM throughout.

In the case of IIKKIWK-NH2 [PvAMP32], the “E. coli ATCC® 25922 (Inhibition %)” value in the assay on E. coli ATCC® 25922 [1] turned out to be 21.19 ± 3.82 %. In addition, in the assay on E. coli ATCC® 8739, the “E. coli ATCC® 8739 (Inhibition %)” value was determined as 30.73 ± 5.21 %. For the same substance, the “S. aureus ATCC® 29213 (Inhibition %)” value with S. aureus ATCC® 29213 [4] is on record as 33.17 ± 8.46 %. Moreover, the “S. aureus ATCC® 6538 (Inhibition %)” value in the assay with S. aureus ATCC® 6538 worked out at 43.62 ± 4.90 %. For the same substance, the minimal inhibitory concentration (MIC) with E. coli ATCC® 25922 [2] stood at 100 µM; against S. aureus ATCC® 29213 [3], 50 µM; in the assay with P. aeruginosa ATCC® 9027, 100 µM. Further, the values for the half-maximal inhibitory concentration (IC50) with E. coli ATCC® 25922 [2] (setting [5]), with S. aureus ATCC® 29213 [3] and in the assay on P. aeruginosa ATCC® 9027 were 94.7 µM, 108 µM and 124 µM, respectively. Besides, the minimum bactericidal concentration (MBC) against E. coli ATCC® 25922 [2] and in the assay with P. aeruginosa ATCC® 9027 was 100 µM throughout.

Regarding “RSVLKAHCRICRRRG-NH2 (disulfide) [PvAMP164, predicted P. verdolaga AMP]”, in the assay with E. coli ATCC® 25922 [1], the “E. coli ATCC® 25922 (Inhibition %)” value is on record as 30.10 ± 3.90 %. For the same substance, the “E. coli ATCC® 8739 (Inhibition %)” value with E. coli ATCC® 8739 turned out to be 20.51 ± 4.31 %. Further, the “S. aureus ATCC® 29213 (Inhibition %)” value in the assay with S. aureus ATCC® 29213 [4] is 12.25 ± 1.29 %. In addition, the “S. aureus ATCC® 6538 (Inhibition %)” value in the assay with S. aureus ATCC® 6538 came to 24.49 ± 10.18 %. In the assay on E. coli ATCC® 25922 [2], this substance returned a minimum inhibitory concentration (MIC) of 200 µM and an MBC of 200 µM. In the assay with P. aeruginosa ATCC® 9027, this substance showed an MIC of 100 µM and an MBC of 100 µM.

For “QCRKLCFRNRCLTYCRGRG-NH2 (disulfide (positions not given here)) [PvAMP183, predicted P. verdolaga AMP]”, the “E. coli ATCC® 25922 (Inhibition %)” value in the assay on E. coli ATCC® 25922 [1] is listed as 64.66 ± 1.26 %. Further, in the assay on E. coli ATCC® 8739, the “E. coli ATCC® 8739 (Inhibition %)” value is listed as 48.26 ± 2.41 %. In the assay on S. aureus ATCC® 29213 [4], the inhibition was determined as 4.71 ± 21.9%. For the same substance, in the assay with S. aureus ATCC® 6538, the “S. aureus ATCC® 6538 (Inhibition %)” value is given as 47.36 ± 1.27 %. Besides, the minimum inhibitory concentration (MIC) was 25 µM in the assay on E. coli ATCC® 25922 [2] and 50 µM with P. aeruginosa ATCC® 9027. Also, the concentration for half-maximal inhibition (IC50) in the assay with E. coli ATCC® 25922 [2] (setting [5]) came out at 26.9 µM; with P. aeruginosa ATCC® 9027, 48.3 µM. Besides, the minimal bactericidal concentration (MBC) against E. coli ATCC® 25922 [2] is 50 µM; against P. aeruginosa ATCC® 9027, 100 µM.

Take “CRKLCFRNRCLTYCRGR-NH2 (disulfide (positions not given here)) [PvAMP172, predicted P. verdolaga AMP]”: the “E. coli ATCC® 25922 (Inhibition %)” value in the assay on E. coli ATCC® 25922 [1] was determined as 47.43 ± 2.76 %. In addition, the “E. coli ATCC® 8739 (Inhibition %)” value in the assay on E. coli ATCC® 8739 stood at 64.78 ± 5.46 %. The values for the minimal inhibitory concentration (MIC) against E. coli ATCC® 25922 [2], against S. aureus ATCC® 29213 [3] and in the assay on P. aeruginosa ATCC® 9027 were 50 µM, 100 µM and 50 µM, respectively. In addition, the results for the concentration for half-maximal inhibition (IC50) with E. coli ATCC® 25922 [2] (setting [5]) and in the assay on P. aeruginosa ATCC® 9027 were 42.9 µM and 48.4 µM, respectively. For the same substance, the MBC is 50 µM with E. coli ATCC® 25922 [2]; 100 µM with S. aureus ATCC® 29213 [3] (plating on Mueller-Hinton agar, absence of growth); 50 µM in the assay with P. aeruginosa ATCC® 9027.

As to GRIFRLLRK-NH2 [PvAMP82], the “E. coli ATCC® 25922 (Inhibition %)” value in the assay with E. coli ATCC® 25922 [1] is on record as 74.94 ± 14.27 %. Also, in the assay on E. coli ATCC® 8739, the “E. coli ATCC® 8739 (Inhibition %)” value is recorded as 64.01 ± 4.28 %. Besides, in the assay on S. aureus ATCC® 29213 [4], the “S. aureus ATCC® 29213 (Inhibition %)” value is 43.44 ± 10.24 %. In addition, in the assay with S. aureus ATCC® 6538, the “S. aureus ATCC® 6538 (Inhibition %)” value is 43.03 ± 6.37 %. Moreover, in the assay with E. coli ATCC® 25922 [2], the MIC was found to be 100 µM and the MBC came out at 100 µM. In the assay with P. aeruginosa ATCC® 9027, the MIC came to 200 µM and the MBC is listed as 200 µM.
